Experimental data: US20250230193A1, “CYCLIC COMPOUND HAVING SELECTIVE KRAS INHIBITORY EFFECT ON HRAS AND NRAS” (CHUGAI SEIYAKU KABUSHIKI KAISHA, priority 2022, published 2025)

Tests used:
[1] = target: GDP-bound HRAS wild-type protein (Homo sapiens, UniProt P01112); test: Binding to HRAS by surface plasmon resonance (SPR), Single Cycle Kinetics; conditions: KD ratio HRAS/KRAS, SPR, GDP-bound wild-type proteins
[2] = target: GDP-bound NRAS wild-type protein (Homo sapiens, UniProt P01111); test: Binding to NRAS by surface plasmon resonance (SPR), Single Cycle Kinetics; conditions: KD ratio NRAS/KRAS, SPR, GDP-bound wild-type proteins
Sequence of GDP-bound NRAS wild-type protein (P01111 whole entry): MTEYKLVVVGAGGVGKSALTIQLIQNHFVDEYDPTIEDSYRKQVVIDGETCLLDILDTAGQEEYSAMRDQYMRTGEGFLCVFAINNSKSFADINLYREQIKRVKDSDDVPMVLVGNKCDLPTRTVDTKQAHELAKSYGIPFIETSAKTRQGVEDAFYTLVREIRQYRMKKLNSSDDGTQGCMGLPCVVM

Sequence of GDP-bound HRAS wild-type protein (P01112 whole entry): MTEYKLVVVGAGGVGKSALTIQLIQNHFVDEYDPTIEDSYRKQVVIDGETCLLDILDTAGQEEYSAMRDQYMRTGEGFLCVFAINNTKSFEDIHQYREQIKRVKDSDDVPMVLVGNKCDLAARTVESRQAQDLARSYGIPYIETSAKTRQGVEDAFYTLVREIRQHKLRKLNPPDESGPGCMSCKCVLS

| Structure (SMILES) | HRAS/KRAS (ratio of KD value with respect to GDP-bound HRAS wild-type protein to KD value with respect to KRAS) [1] | NRAS/KRAS (ratio of KD value with respect to GDP-bound NRAS wild-type protein to KD value with respect to KRAS) [2] |
| --- | --- | --- |
| CCC[C@H]1C(=O)N[C@@H]([C@@H](C)CC)C(=O)N(C)CC(=O)N(C)[C@H]2C/C=C\CCN(C2=O)[C@@H](Cc2ccc(C(F)(F)F)cc2)C(=O)N(C)CC(=O)N[C@@H](CCc2ccc(Cl)c(Cl)c2)C(=O)N2CCCCC[C@H]2C(=O)NC2(CC(C)(C)C2)C(=O)N(C)[C@@H](C(CC)CC)C(=O)N(C)[C@H](C(=O)N(C)C)CC(=O)N1C [PP3031] | A (a compound having 10 or more and less than 20 is denoted as A) | AA (a compound having 20 or more is denoted as AA) |
| CCO[C@@H]1C[C@H]2C(=O)NC3(CC(C)(C)C3)C(=O)N(C)[C@@H](C(CC)CC)C(=O)N(C)[C@H](C(=O)N(C)C)CC(=O)N(C)[C@H]3CCCCCCc4ccc(cc4)C[C@@H](C(=O)N(C)CC(=O)N[C@@H](CCc4ccc(C(F)(F)F)c(OC)c4)C(=O)N2C1)N1CC/C=C\C[C@@H](C1=O)N(C)C(=O)CN(C)C(=O)[C@H]([C@@H](C)CC)NC3=O [PP3032] | A (a compound having 10 or more and less than 20 is denoted as A) | AA (a compound having 20 or more is denoted as AA) |
| CCO[C@@H]1C[C@H]2C(=O)NC3(CCC3)C(=O)N(C)[C@@H](C3CCCC3)C(=O)N(C)[C@H](C(=O)N3CCCCC3)CC(=O)N(C)[C@H]3CCCCCCc4ccc(cc4)C[C@@H](C(=O)N(C)CC(=O)N[C@@H](CCc4ccc(C(F)(F)F)c(OC)c4)C(=O)N2C1)N1CC/C=C\C[C@@H](C1=O)N(C)C(=O)CN(C)C(=O)[C@H]([C@@H](C)CC)NC3=O [PP3033, (1S,7S,11R,13S,19S,22S,26S,29S,35S,37Z)-19-cyclopentyl-11-ethoxy-7-[2-[3-methoxy-4-(trifluoromethyl)phenyl]ethyl]-3,18,21,25,31,34-hexamethyl-29-[(1S)-1-methylpropyl]-22-(piperidine-1-carbonyl)spiro[3,6,9,15,18,21,25,28,31,34,41-undecazapentacyclo[24.15.11.2^43,46.1^35,41.0^9,13]pentapentaconta-37,43(54),44,46(53)-tetraene-16,1′-cyclobutane]-2,5,8,14,17,20,24,27,30,33,55-undecone] | B (a compound having 3 or more and less than 10 is denoted as B) | A (a compound having 10 or more and less than 20 is denoted as A) |
| CCO[C@@H]1C[C@H]2C(=O)NC3(CC(C)(C)C3)C(=O)N(C)[C@@H](C3CCCC3)C(=O)N(C)[C@H](C(=O)N3CCCC3)CC(=O)N(C)[C@H]3CCCCCCc4ccc(cc4)C[C@@H](C(=O)N(C)CC(=O)N[C@@H](CCc4ccc(C(F)(F)F)c(OC)c4)C(=O)N2C1)N1CC/C=C\C[C@@H](C1=O)N(C)C(=O)CN(C)C(=O)[C@H]([C@@H](C)CC)NC3=O [PP3034, (1S,7S,11R,13S,19S,22S,26S,29S,35S,37Z)-19-cyclopentyl-11-ethoxy-7-[2-[3-methoxy-4-(trifluoromethyl)phenyl]ethyl]-3,3′,3′,18,21,25,31,34-octamethyl-29-[(1S)-1-methylpropyl]-22-(pyrrolidine-1-carbonyl)spiro[3,6,9,15,18,21,25,28,31,34,41-undecazapentacyclo[24.15.11.2^43,46.1^35,41.0^9,13]pentapentaconta-37,43(54),44,46(53)-tetraene-16,1′-cyclobutane]-2,5,8,14,17,20,24,27,30,33,55-undecone] | B (a compound having 3 or more and less than 10 is denoted as B) | A (a compound having 10 or more and less than 20 is denoted as A) |
| CCO[C@@H]1C[C@H]2C(=O)NC3(CC(C)(C)C3)C(=O)N(C)[C@@H](C(CC)CC)C(=O)N(C)[C@H](C(=O)N(C)C)CC(=O)N(C)[C@H]3CCCCCc4ccc(cc4)C[C@@H](C(=O)N(C)CC(=O)N[C@@H](CCc4ccc(C(F)(F)F)c(OC)c4)C(=O)N2C1)N1CC/C=C\C[C@@H](C1=O)N(C)C(=O)CN(C)C(=O)[C@H]([C@@H](C)CC)NC3=O [PP3035] | A (a compound having 10 or more and less than 20 is denoted as A) | AA (a compound having 20 or more is denoted as AA) |
| CCO[C@@H]1C[C@H]2C(=O)NC3(CC(C)(C)C3)C(=O)N(C)[C@@H](C3CCCC3)C(=O)N(C)[C@H](C(=O)N3CCCCC3)CC(=O)N(C)[C@H]3CCCCCc4ccc(cc4)C[C@@H](C(=O)N(C)CC(=O)N[C@@H](CCc4ccc(C(F)(F)F)c(OC)c4)C(=O)N2C1)N1CC/C=C\C[C@@H](C1=O)N(C)C(=O)CN(C)C(=O)[C@H]([C@@H](C)CC)NC3=O [PP3036, (1S,7S,11R,13S,19S,22S,26S,29S,35S,37Z)-19-cyclopentyl-11-ethoxy-7-[2-[3-methoxy-4-(trifluoromethyl)phenyl]ethyl]-3,3′,3′,18,21,25,31,34-octamethyl-29-[(1S)-1-methylpropyl]-22-(piperidine-1-carbonyl)spiro[3,6,9,15,18,21,25,28,31,34,41-undecazapentacyclo[24.15.10.2^43,46.1^35,41.0^9,13]tetrapentaconta-37,43(53),44,46(52)-tetraene-16,1′-cyclobutane]-2,5,8,14,17,20,24,27,30,33,54-undecone] | B (a compound having 3 or more and less than 10 is denoted as B) | A (a compound having 10 or more and less than 20 is denoted as A) |
| CCO[C@@H]1C[C@H]2C(=O)NC3(CC(C)(C)C3)C(=O)N(C)[C@@H](C3CCCC3)C(=O)N(C)[C@H](C(=O)N3CCCC3)CC(=O)N(C)[C@H]3CCCCCc4ccc(cc4)C[C@@H](C(=O)N(C)CC(=O)N[C@@H](CCc4ccc(C(F)(F)F)c(OC)c4)C(=O)N2C1)N1CC/C=C\C[C@@H](C1=O)N(C)C(=O)CN(C)C(=O)[C@H]([C@@H](C)CC)NC3=O [PP3037, (1S,7S,11R,13S,19S,22S,26S,29S,35S,37Z)-19-cyclopentyl-11-ethoxy-7-[2-[3-methoxy-4-(trifluoromethyl)phenyl]ethyl]-3,3′,3′,18,21,25,31,34-octamethyl-29-[(1S)-1-methylpropyl]-22-(pyrrolidine-1-carbonyl)spiro[3,6,9,15,18,21,25,28,31,34,41-undecazapentacyclo[24.15.10.2^43,46.1^35,41.0^9,13]tetrapentaconta-37,43(53),44,46(52)-tetraene-16,1′-cyclobutane]-2,5,8,14,17,20,24,27,30,33,54-undecone] | B (a compound having 3 or more and less than 10 is denoted as B) | A (a compound having 10 or more and less than 20 is denoted as A) |
| CCCO[C@@H]1C[C@H]2C(=O)NC3(CC(C)(C)C3)C(=O)N(C)[C@@H](C(CC)CC)C(=O)N(C)[C@H](C(=O)N(C)C)CC(=O)N(C)[C@H]3CCCCc4ccc(cc4)C[C@@H](C(=O)N(C)CC(=O)N[C@@H](CCc4ccc(C(F)(F)F)c(OC)c4)C(=O)N2C1)N1CC/C=C\C[C@@H](C1=O)N(C)C(=O)CN(C)C(=O)[C@H]([C@@H](C)CC)NC3=O [PP3038] | A (a compound having 10 or more and less than 20 is denoted as A) | A (a compound having 10 or more and less than 20 is denoted as A) |
